Test [1] concerns the target T1, cellular catalase in K562 cells (Homo sapiens, UniProt P04040).
T1 construct: endogenous in cells; host or cells: K562 cells
T1 sequence (P04040 2-527 limits assumed): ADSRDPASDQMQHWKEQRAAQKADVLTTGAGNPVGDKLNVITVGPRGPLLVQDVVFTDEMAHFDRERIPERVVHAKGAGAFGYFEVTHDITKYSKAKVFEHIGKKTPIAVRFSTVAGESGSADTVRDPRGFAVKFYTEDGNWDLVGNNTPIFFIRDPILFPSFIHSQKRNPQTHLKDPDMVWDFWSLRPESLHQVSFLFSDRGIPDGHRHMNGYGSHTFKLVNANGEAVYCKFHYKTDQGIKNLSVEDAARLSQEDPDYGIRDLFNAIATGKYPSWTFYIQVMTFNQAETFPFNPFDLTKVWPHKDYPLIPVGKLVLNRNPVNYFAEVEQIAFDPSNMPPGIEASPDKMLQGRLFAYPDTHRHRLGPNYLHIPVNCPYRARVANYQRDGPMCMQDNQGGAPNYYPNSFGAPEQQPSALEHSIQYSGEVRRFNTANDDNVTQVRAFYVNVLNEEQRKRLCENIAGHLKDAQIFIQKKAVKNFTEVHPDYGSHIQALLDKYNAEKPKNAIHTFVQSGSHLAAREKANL
Put plainly: Inhibition of cellular catalase activity in K562 cells. In kind it is cell-based. To be noted: 50 µM each, 2 hours at 37°C. The method, then: Estimation of cellular catalase activity was carried out by suspending K562 cells (5×10^4 for each sample) in 1 ml of PBS along with four catechins and 3-AT (50 µM each) separately and incubated at 37°C for 2 hours. Later, each sample was centrifuged and washed twice with PBS. The final pellet was suspended in 200 µl lysis buffer and kept on ice for 30 min. The lysate was then used in the same protocol used for evaluation of pure catalase activity.
On addition of catechins, a decrease in rate of H2O2 degradation i.e. a decrease in pure catalase activity was observed which is represented in Figure 6A. Catechins with galloyl moiety (ECG and EGCG) reduced catalase activity more than its non-gallated counterparts i.e. EGC and EC. However, Inhibition by EGCG is the closest to inhibition by known catalase inhibitor 3-AT.

Another test concerns the target Bcl-2 proteins. To be noted: read-out: inhibition constant (K i); cited from earlier work.
Another test has as its target DNA methyltransferase. To be noted: KYSE 510 human esophageal cancer cells; cited from earlier work.

Molecules are shown by their SMILES.

Regarding `O=C(O[C@@H]1Cc2c(O)cc(O)cc2O[C@@H]1c1cc(O)c(O)c(O)c1)c1cc(O)c(O)c(O)c1` [EGCG, (−)-epigallocatechin gallate], the “inhibition of cellular catalase activity” value in test [1] is “inhibited cellular catalase in K562 cancer cells”. Further, the Ki on Bcl-2 proteins was 0.33 to 0.49 µM; on DNA methyltransferase, 7 µM.

The record behind these values is PMC4099323, “Inhibition of Catalase by Tea Catechins in Free and Cellular State: A Biophysical Approach” (PLoS ONE, 2014).
